Values quoted from earlier work in patent US20220202849A1, “PERK AS A TARGET FOR VIRUS THERAPEUTICS” (priority 2020, published 2022).

Tested on: PERK
Conditions: as quoted with vendor catalog entry; read-out: PERK inhibitor IC50
In the case of Cn1cc(-c2ccc3c(c2)CCN3C(=O)Cc2cccc(C(F)(F)F)c2)c2c(N)ncnc21 [GSK2606414], the IC50 is given as […]. In the case of Cc1cccc(CC(=O)N2CCc3c2ccc(-c2cn(C)c4ncnc(N)c24)c3F)n1 [GSK2656157], the IC50 is given as about 0.9 nM. In the case of O=C(COc1ccc(Cl)cc1)N[C@H]1CC[C@@H](NC(=O)COc2ccc(Cl)cc2)CC1 [ISRIB (trans-isomer), ISRIB], the IC50 is given as about 5 nM.
